Results on twelve molecules are retold here after patent publication US7432260B2, “Pyrimidine compounds” (Cyclacel Limted, priority 2002, dated 2008).

One assay has as its target CDK9/cyclin T1 (Homo sapiens, UniProt P50750). The assay is described as follows: CDK9 assay. To be noted: Table 2; read-out: Kinase Inhibition IC50 CDK9 cyclin T1. The format is biochemical. The procedure:
(§1) Kinase assays. […] This was achieved by measurement of incorporation of radioactive phosphate from ATP into appropriate polypeptide substrates. Recombinant protein kinases and kinase complexes were produced or obtained commercially. Assays were performed using 96-well plates and appropriate assay buffers (typically 25 mM β-glycerophosphate, 20 mM MOPS, 5 mM EGTA, 1 mM DTT, 1 mM […], pH 7.4), into which were added 2-4 μg of active enzyme with appropriate substrates. The reactions were initiated by addition of Mg/ATP mix (15 mM MgCl2+100 μM ATP with 30-50 kBq per well of [γ-^32P]-ATP) and mixtures incubated as required at 30° C. Reactions were stopped on ice, followed by filtration through p81 filterplates or GF/C filterplates (Whatman Polyfiltronics, Kent, UK). After washing 3 times with 75 mM aq orthophosphoric acid, plates were dried, scintillant added and incorporated radioactivity measured in a scintillation counter (TopCount, Packard Instruments, Pangbourne, Berks, UK). Compounds for kinase assay were made-up as 10 mM stocks in DMSO and diluted into 10% DMSO inrassay buffer.
(§2) CDK 7 and 9 assays. CTD peptide substrate (biotinyl-Ahx-(Tyr-Ser-Pro-Thr-Ser-Pro-Ser)4-NH2; 1-2 mg/mL) and recombinant human CDK7/cyclin H, CDK9/cyclin T1, or CDK9/cyclin K (0.5-2 μg) were incubated for 45 min at 30° C. in the presence of varying amounts of test compound in 20 mM MOPS pH 7.2, 25 mM β-glycerophosphate, 5 mM EGTA, 1 mM DTT, 1 mM sodium vanadate, 15 mM MgCl2, and 100 μM ATP (containing a trace amount of ^32PγATP) in a total volume of 25 μL in a 96-well microtiter plate. The reaction was stopped by placing the plate on ice for 2 min. Avidin (50 μg) was added to each well, and the plate was incubated at room temp for 30 min. The samples were transferred to a 96-well P81 filter plate, and washed (4×200 μL per well) with 75 mM phosphoric acid. Microscint 40 scintillation liquid (50 μL) was added to each well, and the amount of ^32P incorporation for each sample was measured using a Packard Topcount microplate scintillation counter.

The next assay addresses CDK4/cyclin D1 (Homo sapiens, UniProt P11802). Description: Kinase assay CDK4/cyclin D1. To be noted: Table 2; read-out: Kinase Inhibition IC50 CDK4 cyclin D1. In kind it is biochemical. As to the method:
as §1

The test system of the next assay is A549. Description: 72-h MTT cytotoxicity assay A549. To be noted: Homo sapiens, A549, 72 h, Table 4. In kind it is cell-based. As to the method:
(§3) MTT cytotoxicity assay. […] Standard 72-h MTT (thiazolyl blue; 3-[4,5-dimethylthiazol-2-yl]-2,5-diphenyltetrazolium bromide) assays were performed (Haselsberger, K.; Peterson, D. C.; Thomas, D. G.; Darling, J. L. Anti Cancer Drugs 1996, 7, 331-8; Loveland, B. E.; Johns, T. G.; Mackay, I. R.; Vaillant, F.; Wang, Z. X.; Hertzog, P. J. Biochemistry International 1992, 27, 501-10). In short: cells were seeded into 96-well plates according to doubling time and incubated overnight at 37° C. Test compounds were made up in DMSO and a 1/3 dilution series prepared in 100 μL cell media, added to cells (in triplicates) and incubated for 72 ho at 37° C. MTT was made up as a stock of 5 mg/mL in cell media and filter-sterilised. Media was removed from cells followed by a wash with 200 μL PBS.
(§4) MTT solution was then added at 20 μL per well and incubated in the dark at 37° C. for 4 h. MTT solution was removed and cells again washed with 200 μL PBS. MTT dye was solubilised with 200 μL per well of DMSO with agitation.
In general terms: Tetrazolium assays rely on reduction of a dye to a coloured formazan, in cell work by metabolically active cells.

The next assay has as its target CDK1/cyclin B (Homo sapiens, UniProt P06493). The assay is described as follows: Kinase assay CDK1/cyclin B. The format is biochemical. To be noted: Table 2; read-out: Kinase Inhibition IC50 CDK1 cyclin B. As to the method:
as §1

A further assay relates to Saos-2. Description: 72-h MTT cytotoxicity assay Saos-2. In kind it is cell-based. To be noted: Homo sapiens, SAOS-2, 72 h, Table 4. The procedure: as §3, §4
For the next assay, the target named is CDK2/cyclin E (Homo sapiens, UniProt P24941). The assay is described as follows: Kinase assay CDK2/cyclin E. Conditions: Table 2; read-out: Kinase Inhibition IC50 CDK2 cyclin E. In kind it is biochemical. The procedure: as §1
A further assay concerns the target CDK2/cyclin A (Homo sapiens, UniProt P24941). Description: Kinase assay CDK2/cyclin A. In kind it is biochemical. Conditions: Table 2; read-out: Kinase Inhibition IC50 CDK2 cyclin A. As to the method:
as §1

A further assay deals with CDK7/cyclin H (Homo sapiens, UniProt P50613). Description: CDK7 assay. The format is biochemical. To be noted: Table 2; read-out: Kinase Inhibition IC50 CDK7 cyclin H. As to the method:
as §1, §2

Another assay deals with HT29. Description: 72-h MTT cytotoxicity assay HT29. In kind it is cell-based. Conditions: Homo sapiens, HT-29, 72 h, Table 4. The procedure:
as §3, §4

A further assay has as its target GSK-3β (Homo sapiens, UniProt P49841). The assay is described as follows: Kinase assay GSK-3β. To be noted: Table 2; read-out: Kinase Inhibition IC50 GSK-3β. In kind it is biochemical. As to the method:
as §1

Chain of CDK7/cyclin H (P50613 whole entry): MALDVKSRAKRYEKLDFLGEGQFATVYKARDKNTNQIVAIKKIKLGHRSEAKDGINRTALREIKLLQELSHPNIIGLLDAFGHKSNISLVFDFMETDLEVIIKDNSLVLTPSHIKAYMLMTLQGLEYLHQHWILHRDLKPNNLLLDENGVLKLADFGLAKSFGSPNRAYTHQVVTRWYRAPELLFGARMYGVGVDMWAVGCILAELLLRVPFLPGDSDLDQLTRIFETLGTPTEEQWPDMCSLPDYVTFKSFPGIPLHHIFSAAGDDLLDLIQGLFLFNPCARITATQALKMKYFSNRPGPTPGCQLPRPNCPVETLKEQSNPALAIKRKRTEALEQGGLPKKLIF
Chain of CDK9/cyclin T1 (P50750 whole entry): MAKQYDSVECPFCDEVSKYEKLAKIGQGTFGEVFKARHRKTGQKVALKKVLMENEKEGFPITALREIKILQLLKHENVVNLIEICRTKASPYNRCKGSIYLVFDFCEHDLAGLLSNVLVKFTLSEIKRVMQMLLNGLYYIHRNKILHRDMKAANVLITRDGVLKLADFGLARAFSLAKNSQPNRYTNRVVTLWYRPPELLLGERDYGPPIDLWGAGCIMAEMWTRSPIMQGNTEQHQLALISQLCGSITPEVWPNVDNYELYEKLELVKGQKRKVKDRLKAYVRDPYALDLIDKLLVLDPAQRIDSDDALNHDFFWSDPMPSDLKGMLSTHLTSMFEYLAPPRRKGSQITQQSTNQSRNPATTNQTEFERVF
Chain of CDK9/cyclin T1 (O60563 whole entry partner): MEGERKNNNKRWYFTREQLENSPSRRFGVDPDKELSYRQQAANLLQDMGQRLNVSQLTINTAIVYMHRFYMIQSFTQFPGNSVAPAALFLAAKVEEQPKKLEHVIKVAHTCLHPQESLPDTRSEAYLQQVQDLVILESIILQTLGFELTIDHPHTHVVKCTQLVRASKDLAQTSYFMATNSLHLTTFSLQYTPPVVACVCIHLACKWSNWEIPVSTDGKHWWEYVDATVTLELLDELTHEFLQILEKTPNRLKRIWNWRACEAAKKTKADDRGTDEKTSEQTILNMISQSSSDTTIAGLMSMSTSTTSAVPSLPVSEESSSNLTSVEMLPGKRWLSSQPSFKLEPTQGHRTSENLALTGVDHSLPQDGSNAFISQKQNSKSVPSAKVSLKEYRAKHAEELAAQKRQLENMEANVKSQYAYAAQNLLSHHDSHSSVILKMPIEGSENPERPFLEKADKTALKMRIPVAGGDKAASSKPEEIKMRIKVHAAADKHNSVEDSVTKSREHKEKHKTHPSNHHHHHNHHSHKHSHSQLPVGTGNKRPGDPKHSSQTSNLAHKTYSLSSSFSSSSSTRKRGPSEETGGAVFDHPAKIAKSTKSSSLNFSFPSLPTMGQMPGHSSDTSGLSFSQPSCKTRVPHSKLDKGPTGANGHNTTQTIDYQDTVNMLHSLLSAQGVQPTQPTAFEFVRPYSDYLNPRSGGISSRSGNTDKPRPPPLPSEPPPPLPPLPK
Chain of CDK1/cyclin B (P06493 whole entry): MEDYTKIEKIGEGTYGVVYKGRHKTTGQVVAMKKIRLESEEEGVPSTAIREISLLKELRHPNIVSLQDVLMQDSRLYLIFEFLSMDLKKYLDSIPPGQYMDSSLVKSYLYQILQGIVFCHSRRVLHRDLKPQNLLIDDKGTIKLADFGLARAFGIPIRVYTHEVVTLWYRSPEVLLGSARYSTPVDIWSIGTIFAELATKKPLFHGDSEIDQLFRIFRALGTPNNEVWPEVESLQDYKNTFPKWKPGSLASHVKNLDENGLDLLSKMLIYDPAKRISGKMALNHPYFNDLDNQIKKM
Chain of CDK1/cyclin B (P14635 whole entry partner): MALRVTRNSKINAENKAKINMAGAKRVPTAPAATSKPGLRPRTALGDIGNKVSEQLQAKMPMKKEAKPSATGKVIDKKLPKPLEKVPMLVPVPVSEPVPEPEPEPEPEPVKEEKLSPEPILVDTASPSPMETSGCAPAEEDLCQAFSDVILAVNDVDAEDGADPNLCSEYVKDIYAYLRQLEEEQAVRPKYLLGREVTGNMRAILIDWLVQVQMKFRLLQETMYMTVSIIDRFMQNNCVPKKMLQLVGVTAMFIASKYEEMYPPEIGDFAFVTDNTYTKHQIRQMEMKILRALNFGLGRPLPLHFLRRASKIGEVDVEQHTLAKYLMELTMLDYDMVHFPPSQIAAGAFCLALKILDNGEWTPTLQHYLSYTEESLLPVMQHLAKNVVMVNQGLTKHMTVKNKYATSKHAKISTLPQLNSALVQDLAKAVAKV
Chain of CDK4/cyclin D1 (P11802 whole entry): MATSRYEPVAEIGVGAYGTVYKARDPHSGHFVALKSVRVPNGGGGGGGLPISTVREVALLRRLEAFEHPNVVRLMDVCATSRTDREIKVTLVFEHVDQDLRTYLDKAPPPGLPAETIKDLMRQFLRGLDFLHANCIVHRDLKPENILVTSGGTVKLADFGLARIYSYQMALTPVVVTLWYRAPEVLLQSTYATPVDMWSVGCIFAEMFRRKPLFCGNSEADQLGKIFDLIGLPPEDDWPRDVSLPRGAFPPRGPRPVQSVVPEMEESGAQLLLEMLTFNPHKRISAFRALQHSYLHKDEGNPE
Chain of CDK4/cyclin D1 (P24385 whole entry partner): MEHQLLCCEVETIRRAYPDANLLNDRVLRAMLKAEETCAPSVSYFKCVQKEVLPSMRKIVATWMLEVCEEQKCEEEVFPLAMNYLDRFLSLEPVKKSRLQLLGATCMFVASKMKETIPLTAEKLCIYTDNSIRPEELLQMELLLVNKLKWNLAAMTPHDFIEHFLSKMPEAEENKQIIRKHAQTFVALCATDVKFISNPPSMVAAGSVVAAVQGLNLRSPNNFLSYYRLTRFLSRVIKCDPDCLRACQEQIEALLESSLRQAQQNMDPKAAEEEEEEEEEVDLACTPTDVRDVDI
Chain of GSK-3β (P49841 whole entry): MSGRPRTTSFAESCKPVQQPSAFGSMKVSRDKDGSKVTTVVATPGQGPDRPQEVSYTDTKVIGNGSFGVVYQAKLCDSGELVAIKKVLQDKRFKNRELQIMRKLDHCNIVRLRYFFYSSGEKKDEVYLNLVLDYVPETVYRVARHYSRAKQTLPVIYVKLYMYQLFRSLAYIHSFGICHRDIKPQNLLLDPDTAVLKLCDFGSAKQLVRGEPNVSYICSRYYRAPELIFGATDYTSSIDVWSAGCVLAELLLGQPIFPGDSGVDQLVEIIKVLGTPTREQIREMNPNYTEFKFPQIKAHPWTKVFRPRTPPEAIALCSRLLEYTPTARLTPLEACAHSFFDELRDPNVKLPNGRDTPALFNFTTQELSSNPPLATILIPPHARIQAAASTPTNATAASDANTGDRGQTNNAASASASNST

The IC50 is the point on the concentration scale where inhibition reaches its midpoint. Consider `Cc1nc(C)c(-c2ccnc(Nc3ccc(N4CCN(CCO)CC4)cc3)n2)s1` [Compound 9, 2-(4-{4-[4-(2,4-Dimethyl-thiazol-5-yl)-pyrimidin-2-ylamino]-phenyl}-piperazin-1-yl)-ethanol], for which the IC50 on CDK9/cyclin T1 was determined as 210 nM; at CDK4/cyclin D1 it was 430 nM; in the assay on A549, 3000 nM; at CDK1/cyclin B, 5200 nM; in the assay with Saos-2, 2000 nM; on CDK2/cyclin E, 2200 nM. For the same molecule, the half-inhibitory concentration (IC50) at CDK2/cyclin A is 1200 nM; at CDK7/cyclin H, 1300 nM; in the assay on HT29, 2000 nM.
`Cc1nc(NC(=O)CCN)sc1-c1ccnc(Nc2cccc([N+](=O)[O-])c2)n1` [Compound 13, 3-Amino-N-{4-methyl-5-[2-(3-nitro-phenylamino)-pyrimidin-4-yl]-thiazol-2-yl}-propionamide]: the half-inhibitory concentration (IC50) turned out to be 42 nM at CDK9/cyclin T1; 670 nM on CDK4/cyclin D1; 3100 nM in the assay on A549; 5600 nM on CDK1/cyclin B; 1900 nM in the assay with Saos-2; 280 nM at CDK2/cyclin E. Also, the IC50 was 570 nM at CDK2/cyclin A, 370 nM on CDK7/cyclin H and 2800 nM in the assay on HT29.
For `Cc1nc(NC(=O)CCBr)sc1-c1ccnc(Nc2ccc(F)cc2)n1` [Compound 20, 3-Bromo-N-{5-[2-(4-fluoro-phenylamino)-pyrimidin-4-yl]-4-methyl-thiazol-2-yl}-propionamide], the IC50 was 37 nM on CDK9/cyclin T1; 770 nM at CDK4/cyclin D1; 5800 nM in the assay with A549; 1900 nM on CDK1/cyclin B; 76 nM on CDK2/cyclin E; 520 nM at CDK2/cyclin A. For the same molecule, half-maximal inhibition with HT29 (IC50) was put at 6300 nM.
In the case of `Cc1nc(NC(=O)CCl)sc1-c1ccnc(Nc2ccc(Cl)cc2)n1` [Compound 34, 2-Chloro-N-{5-[2-(4-chloro-phenylamino)-pyrimidin-4-yl]-4-methyl-thiazol-2-yl}-acetamide], the IC50 at CDK4/cyclin D1 stood at 7000 nM; in the assay on A549, 3900 nM; at GSK-3β, 730 nM; in the assay on Saos-2 it was 3300 nM; on CDK2/cyclin E, 1400 nM; in the assay with HT29, 3200 nM.
As to `Cc1nc(NC(=O)CCN2CCOCC2)sc1-c1ccnc(Nc2ccc(Cl)cc2)n1` [Compound 35, N-{5-[2-(4-Chloro-phenylamino)-pyrimidin-4-yl]-4-methyl-thiazol-2-yl}-3-morpholin-4-yl-propionamide], the concentration for half-maximal inhibition (IC50) at CDK9/cyclin T1 worked out at 1800 nM; on CDK4/cyclin D1 it was 4700 nM; with A549 it was 15000 nM; on CDK1/cyclin B it was 15000 nM; in the assay on Saos-2, 26000 nM; on CDK2/cyclin E, 800 nM. In addition, the half-maximal inhibitory concentration (IC50) on CDK2/cyclin A came out at 3000 nM; in the assay with HT29 it was 7700 nM.
As for `CCN(CC)CCNCCC(=O)Nc1nc(C)c(-c2ccnc(Nc3ccc(Cl)cc3)n2)s1` [Compound 36, N-{5-[2-(4-Chloro-phenylamino)-pyrimidin-4-yl]-4-methyl-thiazol-2-yl}-3-(2-diethylamino-ethylamino)-propionamide], the IC50 at CDK9/cyclin T1 turned out to be 4800 nM; on CDK4/cyclin D1 it was 8800 nM; with A549, 26000 nM; at CDK1/cyclin B it was 33000 nM; in the assay with Saos-2, 38000 nM; on CDK2/cyclin E, 3400 nM. Besides, the half-maximal inhibitory concentration (IC50) at CDK2/cyclin A is 13000 nM; at CDK7/cyclin H it was 4000 nM; in the assay with HT29, 9600 nM.
For the molecule `Cc1nc(NC(=O)CCNCCN2CCOCC2)sc1-c1ccnc(Nc2ccc(Cl)cc2)n1` [Compound 37, N-{5-[2-(4-Chloro-phenylamino)-pyrimidin-4-yl]-4-methyl-thiazol-2-yl}-3-(2-morpholin-4-yl-ethylamino)-propionamide], the half-inhibitory concentration (IC50) on CDK9/cyclin T1 is 6300 nM; at CDK4/cyclin D1, 18000 nM; with A549, 35000 nM; at CDK1/cyclin B, > 100000 nM; in the assay with Saos-2, 73000 nM; on CDK2/cyclin E it was 8000 nM. Moreover, the IC50 at CDK2/cyclin A was found to be 16000 nM; in the assay with HT29, 15000 nM.
Consider `COc1ccc(Nc2nccc(-c3sc(NC(=O)CCN4CCOCC4)nc3C)n2)cc1` [Compound 38, N-{5-[2-(4-Methoxy-phenylamino)-pyrimidin-4-yl]-4-methyl-thiazol-2-yl}-3-morpholin-4-yl-propionamide], for which the IC50 is 1100 nM at CDK9/cyclin T1; 1800 nM on CDK4/cyclin D1; 2700 nM with A549; 1900 nM at CDK1/cyclin B; 5300 nM with Saos-2; 2700 nM at CDK2/cyclin E. Also, the half-inhibitory concentration (IC50) worked out at 580 nM at CDK2/cyclin A and 1700 nM in the assay on HT29.
Take `COc1cccc(Nc2nccc(-c3sc(NC(=O)CCN4CCOCC4)nc3C)n2)c1` [Compound 39, N-{5-[2-(3-Methoxy-phenylamino)-pyrimidin-4-yl]-4-methyl-thiazol-2-yl}-3-morpholin-4-yl-propionamide]: the IC50 at CDK9/cyclin T1 amounted to 15000 nM; at CDK4/cyclin D1, 32000 nM; in the assay on A549 it was 800 nM; on CDK1/cyclin B it was 11000 nM; in the assay on Saos-2, 950 nM; on CDK2/cyclin E, 1200 nM. The concentration for half-maximal inhibition (IC50) at CDK2/cyclin A amounted to 2700 nM; in the assay with HT29 it was 720 nM.
As for `COc1ccc(Nc2nccc(-c3sc(NC(=O)CCN4CCN(C)CC4)nc3C)n2)cc1` [Compound 40, N-{5-[2-(4-Methoxy-phenylamino)-pyrimidin-4-yl]-4-methyl-thiazol-2-yl}-3-(4-methyl-piperazin-1-yl)-propionamide], the IC50 came to 8900 nM on CDK9/cyclin T1; 7400 nM on CDK4/cyclin D1; 4400 nM in the assay with A549; 61000 nM at CDK1/cyclin B; 4300 nM in the assay on Saos-2; 64000 nM at CDK2/cyclin E. The values for the IC50 on CDK2/cyclin A and with HT29 were 14000 nM and 730 nM, respectively.
Take `CC(=O)Nc1ccc(Nc2nccc(-c3sc(C)nc3C)n2)cc1` [Compound 45, N-{4-[4-(2,4-Dimethyl-thiazol-5-yl)-pyrimidin-2-ylamino]-phenyl}-acetamide]: the IC50 at CDK9/cyclin T1 amounted to 240 nM; on CDK4/cyclin D1, 370 nM; in the assay with A549 it was 2600 nM; on CDK1/cyclin B it was 2500 nM; with Saos-2, 2800 nM; at CDK2/cyclin E it was 660 nM. Moreover, the half-maximal inhibitory concentration (IC50) was determined as 840 nM on CDK2/cyclin A, 17000 nM on CDK7/cyclin H and 2200 nM in the assay with HT29.
For `CCNc1nc(C)c(-c2ccnc(Nc3cccc(CO)c3)n2)s1` [Compound 68, {3-[4-(2-Ethylamino-4-methyl-thiazol-5-yl)-pyrimidin-2-ylamino]-phenyl}-methanol], the 50% inhibitory concentration (IC50) was found to be 42 nM on CDK4/cyclin D1; 820 nM on GSK-3β; 150 nM on CDK1/cyclin B; 65 nM on CDK2/cyclin E; 61 nM on CDK2/cyclin A; 480 nM at CDK7/cyclin H.
